The experiment deals with ovarian cancer patients (UAB cohort). The experiment is described as follows: Kaplan-Meier recurrence curves, University of Alabama at Birmingham (UAB) ovarian cancer cohort, patients classified by TLE3 antibody staining. It is filed as in vivo, human. The note with it: all patients received paclitaxel, most also platinum chemotherapy (carboplatin or cisplatin). From the text:
All patients received paclitaxel. Most patients also received platinum chemotherapy (carboplatin or cisplatin). Recurrence data from TLE3-positive and TLE3-negative patients in this subset were used to generate the top and bottom curves, respectively. As shown in the Figure, antibody binding to the TLE3 marker correlated with prognosis in these treated patients (HR=0.64, p<0.049).
Kaplan-Meier recurrence curves that were generated using patients in the RP breast cancer cohort that received chemotherapy are consistent with this prediction model (see FIG. 6, HR=0.194, p=0.010). Kaplan-Meier recurrence curves that were generated using patients in the UAB ovarian cancer cohort that received chemotherapy are also consistent with this prediction model (see FIG. 18, HR=0.64, p=0.049).

Structures are written as SMILES.

For `CC(=O)O[C@H]1C(=O)[C@@]2(C)[C@H]([C@H](OC(=O)c3ccccc3)[C@]3(O)C[C@H](OC(=O)[C@H](O)[C@@H](NC(=O)c4ccccc4)c4ccccc4)C(C)=C1C3(C)C)[C@]1(OC(C)=O)CO[C@@H]1C[C@@H]2O` [paclitaxel], the “HR (recurrence, TLE3-positive vs TLE3-negative patients)” value was found to be 0.64.

These data come from US8785156B2, “TLE3 as a marker for chemotherapy” (Clarient Diagnostic Services, Inc., priority 2007, dated 2014).
